Assay results taken from patent publication US20010046987A1, “Oxazolidinones having a sulfoximine functionality” (priority 1999, published 2001).
Values after ≈ are worked out from the molar mass of the structure shown.

Experiments:
[1] = tested on: Streptococcus pyogenes; assay: MIC by agar dilution, SPYO 152; format: cell-based; details: for MIC: Streptococcus pyogenes, strain SPYO 152, read-out: Antibacterial Activity Minimum Inhibitory Concentration SPYO 152; for Antibacterial Activity Minimum Inhibitory Concentration SPYO 152: strain SPYO 152
Excerpt: (§1) The in vitro activity of compounds of this invention can be assessed by standard testing procedures such as the determination of minimum inhibitory concentration (MIC) by agar dilution as described in “Approved Standard.

[2] = tested on: Moraxella catarrhalis; assay: MIC by agar dilution, MCAT 30607; format: cell-based; details: for MIC: Moraxella catarrhalis, strain MCAT 30607, read-out: Antibacterial Activity Minimum Inhibitory Concentration MCAT 30607; for Antibacterial Activity Minimum Inhibitory Concentration MCAT 30607: strain MCAT 30607
Excerpt: as §1

[3] = tested on: H. influenzae; assay: MIC by agar dilution, HINF 30063; format: cell-based; details: for MIC: Haemophilus influenzae, strain HINF 30063, read-out: Antibacterial Activity Minimum Inhibitory Concentration HINF 30063; for Antibacterial Activity Minimum Inhibitory Concentration HINF 30063: strain HINF 30063
Excerpt: as §1

[4] = tested on: Enterococcus faecium; assay: MIC by agar dilution, EFAE 12712; format: cell-based; details: for MIC: Enterococcus faecium, strain EFAE 12712, read-out: Antibacterial Activity Minimum Inhibitory Concentration EFAE 12712; for Antibacterial Activity Minimum Inhibitory Concentration EFAE 12712: strain EFAE 12712
Excerpt: as §1

[5] = tested on: Enterococcus faecalis; assay: MIC by agar dilution, EFAE 9217; format: cell-based; details: for MIC: Enterococcus faecalis, strain EFAE 9217, read-out: Antibacterial Activity Minimum Inhibitory Concentration EFAE 9217; for Antibacterial Activity Minimum Inhibitory Concentration EFAE 9217: strain EFAE 9217
Excerpt: as §1

[6] = tested on: Staphylococcus aureus; assay: MIC by agar dilution, SAUR 9213; format: cell-based; details: for MIC: Staphylococcus aureus, strain SAUR 9213, read-out: Antibacterial Activity Minimum Inhibitory Concentration SAUR 9213; for Antibacterial Activity Minimum Inhibitory Concentration SAUR 9213: strain SAUR 9213
Excerpt: as §1

[7] = tested on: Streptococcus pneumoniae; assay: MIC by agar dilution, SPNE 9912; format: cell-based; details: for MIC: Streptococcus pneumoniae, strain SPNE 9912, read-out: Antibacterial Activity Minimum Inhibitory Concentration SPNE 9912; for Antibacterial Activity Minimum Inhibitory Concentration SPNE 9912: strain SPNE 9912
Excerpt: as §1

[8] = tested on: Staphylococcus epidermidis; assay: MIC by agar dilution, SEPI 30593; format: cell-based; details: for MIC: Staphylococcus epidermidis, strain SEPI 30593, read-out: Antibacterial Activity Minimum Inhibitory Concentration SEPI 30593; for Antibacterial Activity Minimum Inhibitory Concentration SEPI 30593: strain SEPI 30593
Excerpt: as §1

Row | MIC [1] [µg/mL] | MIC [2] [µg/mL] | MIC [3] [µg/mL] | MIC [4] [µg/mL] | MIC [5] [µg/mL] | MIC [6] [µg/mL] | melting point | MIC [7] [µg/mL] | MIC [8] [µg/mL] | Compound | Antibacterial Activity Minimum Inhibitory Concentration SPYO 152 [1] [µg/mL] | Antibacterial Activity Minimum Inhibitory Concentration MCAT 30607 [2] [µg/mL] | Antibacterial Activity Minimum Inhibitory Concentration HINF 30063 [3] [µg/mL] | Antibacterial Activity Minimum Inhibitory Concentration EFAE 12712 [4] [µg/mL] | Antibacterial Activity Minimum Inhibitory Concentration EFAE 9217 [5] [µg/mL] | Antibacterial Activity Minimum Inhibitory Concentration SAUR 9213 [6] [µg/mL] | Antibacterial Activity Minimum Inhibitory Concentration SPNE 9912 [7] [µg/mL] | Antibacterial Activity Minimum Inhibitory Concentration SEPI 30593 [8] [µg/mL]
1 | 0.25 (≈ 0.603 µM) | 2 (≈ 4.82 µM) | 2 (≈ 4.82 µM) | 0.5 (≈ 1.21 µM) | 0.5 (≈ 1.21 µM) | 1 (≈ 2.41 µM) | 189 to 190 °C | 0.25 (≈ 0.603 µM) | 0.25 (≈ 0.603 µM) | CCC(=S)NC[C@H]1CN(c2ccc(N3CCS(=N)(=O)CC3)c(F)c2)C(=O)O1 [Example 2, N-({(5S)-3-[3-Fluoro-4-(1-imino-1-oxido-1λ^4,4-thiazinan-4-yl)phenyl]-2-oxo-1,3-oxazolidin-5-yl}methyl)propanethioamide] | – | – | – | – | – | – | – | –
2 | 0.25 (≈ 0.586 µM) | 1 (≈ 2.34 µM) | 4 (≈ 9.38 µM) | 0.5 (≈ 1.17 µM) | 1 (≈ 2.34 µM) | 1 (≈ 2.34 µM) | 209 to 210 °C (dec.) | 0.25 (≈ 0.586 µM) | 0.25 (≈ 0.586 µM) | N=S1(=O)CCN(c2ccc(N3C[C@H](CNC(=S)C4CC4)OC3=O)cc2F)CC1 [Example 3, N-({(5S)-3-[3-Fluoro-4-(1-imino-1-oxido-1λ^4,4-thiazinan-4-yl)phenyl]-2-oxo-1,3-oxazolidin-5-yl}methyl)cyclopropanecarbothioamide] | – | – | – | – | – | – | – | –
3 | 0.5 (≈ 1.13 µM) | 2 (≈ 4.53 µM) | 8 (≈ 18.1 µM) | 1 (≈ 2.26 µM) | 1 (≈ 2.26 µM) | 2 (≈ 4.53 µM) | 200 to 201 °C | 0.5 (≈ 1.13 µM) | 1 (≈ 2.26 µM) | CC[N-][S@+2]1([O-])CC[C@@H](c2ccc(N3C[C@H](CNC(=S)CC)OC3=O)cc2F)CC1 [Example 15, N-({(5S)-3-[3-Fluoro-4-[1-(ethylimino)-1-oxidohexahydro-1λ^4-thiopyran-4-yl]phenyl]-2-oxo-1,3-oxazolidin-5-yl}methyl)propanethioamide, Z-isomer] | – | – | – | – | – | – | – | –
4 | 1 (≈ 1.88 µM) | 2 (≈ 3.76 µM) | > 64 | 2 (≈ 3.76 µM) | 1 (≈ 1.88 µM) | 2 (≈ 3.76 µM) | 165.5 to 167 °C | 0.5 (≈ 0.94 µM) | 2 (≈ 3.76 µM) | CCC(=S)NCC1CN(c2ccc(C3CC[S+2]([O-])([N-]CCCc4ccccc4)CC3)c(F)c2)C(=O)O1 [Example 17, N-({(5S)-3-[3-Fluoro-4-[1-[(3-phenylpropyl)imino]-1-oxidohexahydro-1λ^4-thiopyran-4-yl]phenyl]-2-oxo-1,3-oxazolidin-5-yl}methyl)propanethioamide, Z-isomer] | – | – | – | – | – | – | – | –
5 | 0.125 (≈ 0.216 µM) | 0.25 (≈ 0.433 µM) | > 64 | 0.25 (≈ 0.433 µM) | 0.25 (≈ 0.433 µM) | 0.5 (≈ 0.866 µM) | 222 to 228 °C | < 0.06 | 0.25 (≈ 0.433 µM) | CCC(=S)NCC1CN(c2ccc(C3CC[S+2]([O-])([N-]C(=O)Nc4ccc([N+](=O)[O-])cc4)CC3)c(F)c2)C(=O)O1 [Example 21, N-({(5S)-3-[3-Fluoro-4-(1-{[[(4-nitrophenyl)amino]carbonyl]imino}-1-oxidohexahydro-1λ^4-thiopyran-4-yl)phenyl]-2-oxo-1,3-oxazolidin-5-yl}methyl)propanethioamide, Z-isomer] | – | – | – | – | – | – | – | –
6 | 0.5 (≈ 1.06 µM) | 4 (≈ 8.5 µM) | 4 (≈ 8.5 µM) | 1 (≈ 2.12 µM) | 0.5 (≈ 1.06 µM) | 2 (≈ 4.25 µM) | 221 to 222 °C | 0.25 (≈ 0.531 µM) | 2 (≈ 4.25 µM) | CCC(=S)NC[C@H]1CN(c2ccc([C@H]3CC[S@+2]([O-])([N-]CC(N)=O)CC3)c(F)c2)C(=O)O1 [Example 23, N-({(5S)-3-[3-Fluoro-4-[1-[[(aminocarbonyl)methyl]imino]-1-oxidohexahydro-1λ^4-thiopyran-4-yl]phenyl]-2-oxo-1,3-oxazolidin-5-yl}methyl)propanethioamide, Z-isomer] | – | – | – | – | – | – | – | –
7 | 0.5 (≈ 1.14 µM) | 2 (≈ 4.55 µM) | 4 (≈ 9.1 µM) | 1 (≈ 2.27 µM) | 0.5 (≈ 1.14 µM) | 1 (≈ 2.27 µM) | 201 to 202 °C (dec.) | 0.25 (≈ 0.569 µM) | 0.5 (≈ 1.14 µM) | C[N-][S+2]1([O-])CCC(c2ccc(N3CC(CNC(=S)C4CC4)OC3=O)cc2F)CC1 [Example 29, N-({(5S)-3-[3-Fluoro-4-[1-(methylimino)-1-oxidohexahydro-1λ^4-thiopyran-4-yl]phenyl]-2-oxo-1,3-oxazolidin-5-yl}methyl)cyclopropanecarbothioamide, Z-isomer] | – | – | – | – | – | – | – | –
8 | – | – | – | – | – | – | – | – | – | CC(=O)N=S1(=O)CCN(c2ccc(N3C[C@H](CNC(C)=O)OC3=O)cc2F)CC1 [PREP 2, N-({(5S)-3-[3-Fluoro-4-(1-acetylimino-1-oxido-1λ^4,4-thiazinan-4-yl)phenyl]-2-oxo-1,3-oxazolidin-5-yl}methyl)acetamide] | 2 | 8 | 32 | 4 | 2 | 16 | 1 | 2
9 | – | – | – | – | – | – | – | – | – | CN=S1(=O)CCN(c2ccc(N3C[C@H](CNC(C)=O)OC3=O)cc2F)CC1 [PREP 3, N-({(5S)-3-[3-Fluoro-4-(1-methylimino-1-oxido-1λ^4,4-thiazinan-4-yl)phenyl]-2-oxo-1,3-oxazolidin-5-yl}methyl)acetamide] | 2 | 8 | 16 | 4 | 4 | 16 | 1 | 2

Row | Compound | MIC [1] [µg/mL] | MIC [2] [µg/mL] | MIC [3] [µg/mL] | MIC [4] [µg/mL] | MIC [5] [µg/mL] | MIC [6] [µg/mL] | melting point | MIC [7] [µg/mL] | MIC [8] [µg/mL] | Antibacterial Activity Minimum Inhibitory Concentration SPYO 152 [1] [µg/mL] | Antibacterial Activity Minimum Inhibitory Concentration MCAT 30607 [2] [µg/mL] | Antibacterial Activity Minimum Inhibitory Concentration HINF 30063 [3] [µg/mL] | Antibacterial Activity Minimum Inhibitory Concentration EFAE 12712 [4] [µg/mL] | Antibacterial Activity Minimum Inhibitory Concentration EFAE 9217 [5] [µg/mL] | Antibacterial Activity Minimum Inhibitory Concentration SAUR 9213 [6] [µg/mL] | Antibacterial Activity Minimum Inhibitory Concentration SPNE 9912 [7] [µg/mL] | Antibacterial Activity Minimum Inhibitory Concentration SEPI 30593 [8] [µg/mL]
10 | CCC(=S)NCC1CN(c2ccc(C3CC[S+2]([O-])([N-]Cc4ccccc4)CC3)c(F)c2)C(=O)O1 [Example 16, N-({(5S)-3-[3-Fluoro-4-[1-[(phenylmethyl)imino]-1-oxidohexahydro-1λ^4-thiopyran-4-yl]phenyl]-2-oxo-1,3-oxazolidin-5-yl}methyl)propanethioamide, Z-isomer] | 0.5 (≈ 0.993 µM) | 2 (≈ 3.97 µM) | > 64 | 1 (≈ 1.99 µM) | 1 (≈ 1.99 µM) | 2 (≈ 3.97 µM) | 207 to 208 °C | 0.25 (≈ 0.496 µM) | 1 (≈ 1.99 µM) | – | – | – | – | – | – | – | –
11 | CCC(=S)NCC1CN(c2ccc(C3CC[S+2]([O-])([N-]C(=O)NC)CC3)c(F)c2)C(=O)O1 [Example 18, N-({(5S)-3-[3-Fluoro-4-(1-{[(methylamino)carbonyl]imino}-1-oxidohexahydro-1λ^4-thiopyran-4-yl)phenyl]-2-oxo-1,3-oxazolidin-5-yl}methyl)propanethioamide, Z-isomer] | 0.5 (≈ 1.06 µM) | 4 (≈ 8.5 µM) | 8 (≈ 17 µM) | 1 (≈ 2.12 µM) | 1 (≈ 2.12 µM) | 2 (≈ 4.25 µM) | 203 to 204 °C | 0.25 (≈ 0.531 µM) | 1 (≈ 2.12 µM) | – | – | – | – | – | – | – | –
12 | CCC(=S)NCC1CN(c2ccc(C3CC[S+2]([O-])([N-]C(=O)OC)CC3)c(F)c2)C(=O)O1 [Example 19, N-({(5S)-3-[3-Fluoro-4-(1-[(methoxycarbonyl)imino]-1-oxidohexahydro-1λ^4-thiopyran-4-yl)phenyl]-2-oxo-1,3-oxazolidin-5-yl}methyl)propanethioamide, Z-isomer] | 0.25 (≈ 0.53 µM) | 2 (≈ 4.24 µM) | 2 (≈ 4.24 µM) | 1 (≈ 2.12 µM) | – | 1 (≈ 2.12 µM) | 217 to 218 °C | 0.25 (≈ 0.53 µM) | 0.5 (≈ 1.06 µM) | – | – | – | – | – | – | – | –
13 | CCC(=S)NC[C@H]1CN(c2ccc([C@H]3CC[S@+2]([O-])([N-]C(N)=O)CC3)c(F)c2)C(=O)O1 [Example 22, N-({(5S)-3-[3-Fluoro-4-[1-[(aminocarbonyl)imino]-1-oxidohexahydro-1λ^4-thiopyran-4-yl]phenyl]-2-oxo-1,3-oxazolidin-5-yl}methyl)propanethioamide, Z-isomer] | 0.5 (≈ 1.1 µM) | 2 (≈ 4.38 µM) | 4 (≈ 8.76 µM) | 0.5 (≈ 1.1 µM) | 0.5 (≈ 1.1 µM) | 2 (≈ 4.38 µM) | 236 to 238 °C (dec.) | 0.125 (≈ 0.274 µM) | 0.05 (≈ 0.11 µM) | – | – | – | – | – | – | – | –
